Laboratory results reported in ChEMBL document CHEMBL1201862, “PubChem BioAssay data set” (2004).
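In this assay, cells in 96-well plates receive the compound at five concentrations for 48 hours. Endpoints are linearly interpolated between the surrounding concentrations. GI50 = concentration required for 50% inhibition of growth.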 Activity calls are given as the source filed them. Cut-off read from the data, not from the text of the source: active = GI50 up to about 1.1 µM and inactive = higher.

Key:
Test in all cases: NCI tumour cell line growth inhibition, 48 h
UACC-257 = test system: UACC-257
EKVX = test system: EKVX
T47D = test system: T47D
SN12C = test system: SN12C
ACHN = test system: ACHN
SNB-19 = test system: SNB-19
A549 = test system: A549
Hs-578T = test system: Hs-578T
BT-549 = test system: BT-549
CCRF-CEM = test system: CCRF-CEM
COLO 205 = test system: COLO 205
SNB-75 = test system: SNB-75
NCI/ADR-RES = test system: NCI/ADR-RES
NCI-H226 = test system: NCI-H226
A498 = test system: A498
U-251 = test system: U-251
MDA-MB-435 = test system: MDA-MB-435
Malme-3M = test system: Malme-3M
NCI-H522 = test system: NCI-H522

Measured: GI50

ClCCN1CCOC1=C1C=CC=C1
inactive: UACC-257 > 100 µM | EKVX > 100 µM | T47D > 100 µM | SN12C > 100 µM | ACHN > 100 µM | SNB-19 > 100 µM | A549 > 100 µM | Hs-578T > 100 µM | BT-549 > 100 µM | CCRF-CEM 80.4 µM | COLO 205 > 100 µM | SNB-75 > 100 µM | NCI/ADR-RES > 100 µM | NCI-H226 > 100 µM | A498 > 100 µM | U-251 > 100 µM | MDA-MB-435 > 100 µM

CC(/C=C/C(O)=C1/C(=O)CNC1=O)=C\[C@@H](C)[C@H]1O[C@@]2(C)O[C@H](C(=O)[C@@H]3O[C@@]32C)[C@@H]1C
inactive: UACC-257 15.3 µM | Malme-3M 18.1 µM | EKVX 17.7 µM | T47D 15.1 µM | SN12C 20.3 µM | ACHN 19.6 µM | SNB-19 22.9 µM | Hs-578T 24.9 µM | BT-549 15.8 µM | CCRF-CEM 7.24 µM | COLO 205 20.7 µM | SNB-75 34.8 µM | NCI/ADR-RES 26.6 µM | NCI-H226 21.2 µM | A498 14.3 µM | U-251 19.5 µM | MDA-MB-435 28.2 µM

O=C(c1cccs1)N1CCCN(C(=O)c2cccs2)C1=S
inactive: UACC-257 > 100 µM | Malme-3M > 100 µM | EKVX 52.2 µM | T47D > 100 µM | SN12C > 100 µM | ACHN > 100 µM | SNB-19 > 100 µM | Hs-578T > 100 µM | BT-549 > 100 µM | CCRF-CEM > 100 µM | COLO 205 > 100 µM | NCI/ADR-RES > 100 µM | NCI-H226 > 100 µM | A498 > 100 µM | U-251 > 100 µM | MDA-MB-435 > 100 µM

O=C(Oc1cccc(Cl)c1)c1cc2cc(CCl)ccc2oc1=O
inactive: UACC-257 16.3 µM | Malme-3M 14 µM | EKVX 44.4 µM | T47D 31.5 µM | SN12C 48.9 µM | ACHN 17.6 µM | SNB-19 36.8 µM | A549 33 µM | Hs-578T 59.8 µM | BT-549 > 100 µM | COLO 205 20.7 µM | SNB-75 31.4 µM | NCI-H522 15.3 µM | NCI/ADR-RES > 100 µM | NCI-H226 37.8 µM | MDA-MB-435 30.4 µM

O=C(NCCC1CN(C(=O)OCc2ccccc2)c2ccccc21)OCc1ccccc1 (stereo not drawn)
inactive: UACC-257 > 100 µM | Malme-3M > 100 µM | EKVX 64.6 µM | ACHN > 100 µM | SNB-19 > 100 µM | A549 85.3 µM | Hs-578T > 100 µM | BT-549 > 100 µM | COLO 205 > 100 µM | SNB-75 > 100 µM | NCI-H522 90.6 µM | NCI/ADR-RES > 100 µM | A498 > 100 µM | U-251 > 100 µM | MDA-MB-435 > 100 µM

CCOC(=O)c1cc(-c2ccc(OC)cc2)c([N+](=O)[O-])[nH]1
inactive: UACC-257 > 10 µM | Malme-3M > 10 µM | EKVX > 10 µM | SN12C > 10 µM | ACHN > 10 µM | SNB-19 > 10 µM | A549 > 10 µM | Hs-578T > 10 µM | BT-549 > 10 µM | CCRF-CEM > 10 µM | COLO 205 > 10 µM | SNB-75 > 10 µM | NCI-H522 9.82 µM | NCI-H226 > 9.08 µM | A498 > 10 µM | U-251 > 10 µM | MDA-MB-435 > 5.01 µM

CC(C)C(=O)[C@@]1(C)SC[C@H]2CCN=C21
inactive: UACC-257 > 100 µM | Malme-3M 46.7 µM | EKVX > 100 µM | SN12C > 100 µM | ACHN > 100 µM | SNB-19 > 100 µM | A549 > 100 µM | Hs-578T > 100 µM | BT-549 > 100 µM | CCRF-CEM > 100 µM | COLO 205 > 100 µM | NCI-H522 52 µM | NCI/ADR-RES > 100 µM | NCI-H226 > 100 µM | A498 34.4 µM | MDA-MB-435 25.1 µM

Nc1nc2ncc(SCc3ccc(C(=O)NC(CCC(=O)O)C(=O)O)cc3)cc2c(=O)[nH]1 (stereo not drawn)
inactive: UACC-257 > 100 µM | Malme-3M > 100 µM | EKVX > 100 µM | SN12C > 100 µM | ACHN > 100 µM | SNB-19 > 100 µM | A549 > 100 µM | Hs-578T > 100 µM | BT-549 > 100 µM | COLO 205 > 100 µM | NCI-H522 > 100 µM | NCI/ADR-RES > 100 µM | NCI-H226 > 100 µM | A498 > 100 µM | U-251 > 100 µM | MDA-MB-435 > 100 µM

CC(C)NC(=O)OCc1c2c(n(C)c1COC(=O)NC(C)C)-c1cc(Cl)c(Cl)cc1CC2
inactive: UACC-257 28.4 µM | Malme-3M 49.3 µM | EKVX 33.3 µM | T47D 22.6 µM | SN12C 43 µM | ACHN 34.2 µM | SNB-19 37.8 µM | A549 61 µM | Hs-578T 32.1 µM | BT-549 68.2 µM | CCRF-CEM 17.2 µM | COLO 205 31.3 µM | SNB-75 29.4 µM | NCI/ADR-RES 33.4 µM | NCI-H226 8.91 µM | A498 6.37 µM | U-251 18.2 µM | MDA-MB-435 33.7 µM

CC1(C)C2CCC1(C)C(NC(=O)COCCOCC(N)=O)C2 (stereo not drawn)
inactive: UACC-257 > 100 µM | Malme-3M > 100 µM | EKVX > 100 µM | T47D > 100 µM | SN12C > 100 µM | ACHN > 100 µM | SNB-19 > 100 µM | A549 > 100 µM | Hs-578T > 100 µM | BT-549 > 100 µM | CCRF-CEM > 100 µM | COLO 205 94.8 µM | SNB-75 > 100 µM | NCI-H522 > 100 µM | NCI-H226 > 100 µM | A498 > 100 µM | U-251 > 100 µM | MDA-MB-435 > 100 µM

Cc1ccc(S(=O)(=O)N(CC(O)COc2ccccc2)c2c(F)c(F)cc(F)c2F)cc1 (stereo not drawn)
inactive: Malme-3M 23.1 µM | EKVX 27.9 µM | T47D 19.7 µM | SN12C 22.5 µM | ACHN 21.2 µM | SNB-19 27.6 µM | A549 21.9 µM | Hs-578T 24.3 µM | BT-549 24.5 µM | CCRF-CEM 33.4 µM | COLO 205 15.7 µM | SNB-75 20.5 µM | NCI/ADR-RES 18.1 µM | NCI-H226 23.1 µM | A498 20.3 µM | U-251 21 µM | MDA-MB-435 16.9 µM

Cc1ccc(S(=O)(=O)NC(=O)NCC(N)=O)cc1
inactive: UACC-257 > 100 µM | Malme-3M > 100 µM | T47D > 100 µM | SN12C > 100 µM | ACHN > 100 µM | SNB-19 > 100 µM | A549 > 100 µM | Hs-578T > 100 µM | BT-549 > 100 µM | CCRF-CEM > 100 µM | COLO 205 > 100 µM | SNB-75 > 100 µM | NCI-H522 > 100 µM | NCI/ADR-RES > 100 µM | U-251 > 100 µM
